Patent publication US20220153751A1, “BIFUNCTIONAL COMPOUNDS” (BioTheryX, Inc., priority 2018, published 2022)

How the values were obtained:
Format in all cases: cell-based
IKAROS = biological target: T1, IKAROS (Homo sapiens, UniProt Q13422+Q96SW2); experiment: IKAROS degradation assay (Western blot, MV-4-11 cells); details: MV4-11, 6-8 h
T1 construct: endogenous in cells; host or cells: MV-4-11
Method in brief: (§1)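 Reported degradation is grouped into four bands (A below 25%, B 25% to under 50%, C 50% to under 75%, D 75% or more). Treatment lasts 6-8 h against a DMSO control, followed by RIPA extraction and immunoblotting with near-infrared detection.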

GSPT1 = biological target: T2, GSPT1 (Homo sapiens, UniProt P15170+Q96SW2); experiment: GSPT1 degradation assay (Western blot, MV-4-11 cells); details: MV4-11, 6-8 h
T2 construct: Whole cell extracts were prepared using RIPA buffer; endogenous in cells; host or cells: MV-4-11
Method in brief: as §1

TNF-α = TNF-α inhibition assay, LPS-induced PBMCs / CD14+ monocytes (Meso Scale); details: 1 h pretreatment, 100 ng/mL LPS 18-24 h
Method in brief: (§2)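 Thawed human PBMCs or CD14+ mobilized peripheral blood monocytes, 200,000 cells/well in RPMI-1640/10% FBS, pretreated with compound or DMSO 1 h, then stimulated with 100 ng/mL LPS for 18-24 h. Supernatant cytokine measured by Meso Scale; % inhibition binned A–D (<50%, 50–70%, 70–90%, ≥90%), fold-change binned A–D (≤0.1, ≤0.5, ≤1, >1).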

IL-6 = IL-6 inhibition assay, LPS-induced PBMCs / CD14+ monocytes (Meso Scale); details: 1 h pretreatment, 100 ng/mL LPS 18-24 h
Method in brief: as §2

MOLM-13 cells = experiment: MOLM-13 cell viability assay (CellTiter-Glo); details: Homo sapiens, MOLM-13, 72 h, 3 days, read-out: MOLM-13 Cell Viability % DMSO at 1 μM
Method in brief: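 MOLM-13 cells at 2500 cells/well were exposed to compound for 3 days at 37 °C. Viability was read by CellTiter-Glo luminescence and expressed as % of DMSO control, binned A (<50%), B (50–<70%), C (70–<90%) or D (≥90%).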

IL-2 = IL-2 fold-change assay, anti-CD3 stimulated PBMCs (Mesoscale); details: PBMC, PBMCs on anti-human CD3, 24 h, fold difference from the DMSO control
Method in brief: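 PBMCs (3-4 million cells/mL) stimulated on plates precoated with 1 μg/mL anti-human CD3 antibody, with compound, for 24 h. Supernatant IL-2 measured by Mesoscale. Result expressed as fold difference from DMSO control and reported in bins.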

IL-1β = IL-1β inhibition assay, LPS-induced PBMCs / CD14+ monocytes (Meso Scale); details: 1 h pretreatment, 100 ng/mL LPS 18-24 h
Method in brief: as §2

CK1α = biological target: T3, CK1α (Homo sapiens, UniProt P48729+Q96SW2); experiment: CK1α degradation assay (Western blot, MV-4-11 cells); details: MV4-11, 6-8 h
T3 construct: Whole cell extracts were prepared using RIPA buffer; endogenous in cells; host or cells: MV-4-11
Method in brief: as §1

CDK16 = biological target: T4, CDK16 (Homo sapiens, UniProt Q00536); experiment: CDK16 degradation assay (Western blot, MV-4-11 cells); details: 6-8 h; for Dmax at 0.1 µM: MV4-11, 0.1 μM; for Dmax at 1 µM: MV4-11, 1 μM
T4 construct: Whole cell extracts were prepared using RIPA buffer; endogenous in cells; host or cells: MV-4-11
Method in brief: as §1

CDK9 = biological target: T5, CDK9 (Homo sapiens, UniProt P50750); experiment: CDK9 degradation assay (Western blot, MV-4-11 cells); details: 6-8 h; for Dmax at 0.1 µM: MV4-11, 0.1 μM; for Dmax at 1 µM: MV4-11, 1 μM
T5 construct: Whole cell extracts were prepared using RIPA buffer; endogenous in cells; host or cells: MV-4-11
Method in brief: as §1

T3 sequence (P48729 whole entry): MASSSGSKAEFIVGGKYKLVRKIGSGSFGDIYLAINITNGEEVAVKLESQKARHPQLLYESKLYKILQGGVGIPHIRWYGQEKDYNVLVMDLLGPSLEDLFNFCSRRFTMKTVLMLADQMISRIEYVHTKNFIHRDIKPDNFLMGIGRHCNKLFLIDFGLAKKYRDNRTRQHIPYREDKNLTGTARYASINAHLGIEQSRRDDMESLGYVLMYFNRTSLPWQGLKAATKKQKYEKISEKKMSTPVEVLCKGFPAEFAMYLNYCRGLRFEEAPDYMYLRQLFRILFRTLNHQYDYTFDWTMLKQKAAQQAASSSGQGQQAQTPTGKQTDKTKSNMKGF
T3 sequence (Q96SW2 whole entry): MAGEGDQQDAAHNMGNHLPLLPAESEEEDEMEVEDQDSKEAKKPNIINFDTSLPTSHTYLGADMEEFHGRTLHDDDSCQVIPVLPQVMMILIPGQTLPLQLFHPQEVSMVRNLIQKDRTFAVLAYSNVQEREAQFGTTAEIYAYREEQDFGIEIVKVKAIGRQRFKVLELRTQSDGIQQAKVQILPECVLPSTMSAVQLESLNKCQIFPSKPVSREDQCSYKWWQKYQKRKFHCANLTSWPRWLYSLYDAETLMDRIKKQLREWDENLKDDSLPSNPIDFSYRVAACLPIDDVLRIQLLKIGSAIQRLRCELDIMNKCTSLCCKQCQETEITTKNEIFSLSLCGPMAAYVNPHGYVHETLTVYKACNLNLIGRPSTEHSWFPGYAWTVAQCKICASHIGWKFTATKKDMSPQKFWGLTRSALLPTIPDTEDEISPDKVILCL
T3 sequence (Q16531 whole entry partner): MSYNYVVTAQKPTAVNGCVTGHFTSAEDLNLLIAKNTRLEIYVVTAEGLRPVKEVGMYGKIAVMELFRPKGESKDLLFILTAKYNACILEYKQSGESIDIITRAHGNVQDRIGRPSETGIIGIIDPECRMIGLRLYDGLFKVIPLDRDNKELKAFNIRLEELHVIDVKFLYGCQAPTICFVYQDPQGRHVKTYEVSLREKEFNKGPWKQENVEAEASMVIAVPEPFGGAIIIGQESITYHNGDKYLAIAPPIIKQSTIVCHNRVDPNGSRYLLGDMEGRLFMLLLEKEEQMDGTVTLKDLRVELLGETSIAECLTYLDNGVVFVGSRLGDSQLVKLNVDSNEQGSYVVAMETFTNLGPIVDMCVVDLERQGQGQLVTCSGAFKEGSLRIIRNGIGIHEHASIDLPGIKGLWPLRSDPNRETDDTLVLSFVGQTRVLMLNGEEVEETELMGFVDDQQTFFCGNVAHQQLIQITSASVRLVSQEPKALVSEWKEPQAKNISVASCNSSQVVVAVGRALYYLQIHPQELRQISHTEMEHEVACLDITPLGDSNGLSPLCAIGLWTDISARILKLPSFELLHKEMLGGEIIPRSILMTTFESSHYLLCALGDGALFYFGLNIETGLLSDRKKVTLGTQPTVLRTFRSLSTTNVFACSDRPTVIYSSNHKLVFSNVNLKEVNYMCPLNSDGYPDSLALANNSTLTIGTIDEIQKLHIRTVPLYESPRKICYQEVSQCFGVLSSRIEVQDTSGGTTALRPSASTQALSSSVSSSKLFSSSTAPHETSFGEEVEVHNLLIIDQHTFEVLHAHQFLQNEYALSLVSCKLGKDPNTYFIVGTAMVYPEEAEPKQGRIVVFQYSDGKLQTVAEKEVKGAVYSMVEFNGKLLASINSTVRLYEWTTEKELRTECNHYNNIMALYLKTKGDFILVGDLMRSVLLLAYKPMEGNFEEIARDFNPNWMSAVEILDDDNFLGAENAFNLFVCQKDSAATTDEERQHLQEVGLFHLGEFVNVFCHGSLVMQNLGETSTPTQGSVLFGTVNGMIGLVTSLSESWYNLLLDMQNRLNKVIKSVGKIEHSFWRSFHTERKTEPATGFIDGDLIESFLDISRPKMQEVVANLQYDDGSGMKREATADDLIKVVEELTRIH
T4 sequence (Q00536 whole entry): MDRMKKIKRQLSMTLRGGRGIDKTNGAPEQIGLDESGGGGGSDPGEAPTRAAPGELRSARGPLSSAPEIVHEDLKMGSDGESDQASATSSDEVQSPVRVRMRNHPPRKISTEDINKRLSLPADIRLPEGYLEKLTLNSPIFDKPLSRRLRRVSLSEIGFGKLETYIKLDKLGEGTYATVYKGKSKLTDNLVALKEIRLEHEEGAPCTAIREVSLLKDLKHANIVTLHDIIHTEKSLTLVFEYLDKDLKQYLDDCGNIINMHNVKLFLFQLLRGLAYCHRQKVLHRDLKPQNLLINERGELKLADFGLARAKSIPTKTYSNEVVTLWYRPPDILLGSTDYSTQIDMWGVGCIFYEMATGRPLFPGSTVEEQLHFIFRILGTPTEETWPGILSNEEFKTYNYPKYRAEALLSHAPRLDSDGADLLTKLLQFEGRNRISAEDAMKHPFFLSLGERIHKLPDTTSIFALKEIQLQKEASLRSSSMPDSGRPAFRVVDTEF
T2 sequence (P15170 whole entry): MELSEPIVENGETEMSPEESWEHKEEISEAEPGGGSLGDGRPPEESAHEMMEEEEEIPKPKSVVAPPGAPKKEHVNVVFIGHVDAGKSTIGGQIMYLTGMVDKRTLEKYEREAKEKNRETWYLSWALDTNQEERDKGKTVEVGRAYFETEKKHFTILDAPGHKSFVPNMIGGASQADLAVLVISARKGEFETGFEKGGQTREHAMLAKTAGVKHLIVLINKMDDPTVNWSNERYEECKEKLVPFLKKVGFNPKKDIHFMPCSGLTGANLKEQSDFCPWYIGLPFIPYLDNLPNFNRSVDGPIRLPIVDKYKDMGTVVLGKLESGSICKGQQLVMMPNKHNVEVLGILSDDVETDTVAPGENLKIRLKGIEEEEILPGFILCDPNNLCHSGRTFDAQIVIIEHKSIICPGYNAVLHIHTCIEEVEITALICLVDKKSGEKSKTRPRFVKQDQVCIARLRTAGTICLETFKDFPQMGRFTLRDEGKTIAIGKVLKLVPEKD
T2 sequence (Q96SW2 whole entry): as the sequence (Q96SW2 whole entry) above
T2 sequence (Q16531 whole entry partner): as the sequence (Q16531 whole entry partner) above
T1 sequence (Q13422 whole entry): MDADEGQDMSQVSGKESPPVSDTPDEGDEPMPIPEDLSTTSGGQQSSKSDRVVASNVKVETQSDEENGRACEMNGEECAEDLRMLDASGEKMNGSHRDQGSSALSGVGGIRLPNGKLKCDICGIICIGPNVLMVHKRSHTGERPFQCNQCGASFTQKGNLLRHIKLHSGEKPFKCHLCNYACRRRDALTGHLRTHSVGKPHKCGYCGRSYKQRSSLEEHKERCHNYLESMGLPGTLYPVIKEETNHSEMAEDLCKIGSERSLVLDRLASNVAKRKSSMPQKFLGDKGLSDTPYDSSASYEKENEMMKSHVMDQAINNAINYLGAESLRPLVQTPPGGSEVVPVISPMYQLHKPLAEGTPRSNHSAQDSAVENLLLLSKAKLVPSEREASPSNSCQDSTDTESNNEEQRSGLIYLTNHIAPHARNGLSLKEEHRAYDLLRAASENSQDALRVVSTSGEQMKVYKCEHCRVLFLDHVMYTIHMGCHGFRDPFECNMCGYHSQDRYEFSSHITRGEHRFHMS
T1 sequence (Q96SW2 whole entry): as the sequence (Q96SW2 whole entry) above
T1 sequence (Q16531 whole entry partner): as the sequence (Q16531 whole entry partner) above
T5 sequence (P50750 whole entry): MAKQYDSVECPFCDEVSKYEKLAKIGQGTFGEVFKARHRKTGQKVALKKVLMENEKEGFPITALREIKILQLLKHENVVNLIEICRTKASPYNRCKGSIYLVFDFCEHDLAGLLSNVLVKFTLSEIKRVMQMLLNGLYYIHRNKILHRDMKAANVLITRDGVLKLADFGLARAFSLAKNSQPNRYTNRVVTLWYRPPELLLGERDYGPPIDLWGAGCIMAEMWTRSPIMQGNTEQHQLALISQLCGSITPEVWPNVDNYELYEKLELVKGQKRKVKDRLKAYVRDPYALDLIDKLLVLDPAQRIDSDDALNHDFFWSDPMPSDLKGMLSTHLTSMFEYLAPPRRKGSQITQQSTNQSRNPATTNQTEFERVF

| SMILES | Dmax at 1 µM (IKAROS) [%] | Dmax at 1 µM (GSPT1) [%] | inhibition at 1 µM (TNF-α) [%] | inhibition at 1 µM (IL-6) [%] | viability at 1 µM (MOLM-13 cells) [%] | fold induction at 1 µM (IL-2) | inhibition at 1 µM (IL-1β) [%] | Dmax at 1 µM (CK1α) [%] | Dmax at 0.1 µM (CDK16) [%] | Dmax at 1 µM (CDK16) [%] | Dmax at 0.1 µM (CDK9) [%] | Dmax at 1 µM (CDK9) [%] |
| --- | --- | --- | --- | --- | --- | --- | --- | --- | --- | --- | --- | --- |
| Cn1ncc(-c2nc(N[C@H]3CC[C@H](NCC(=O)NCCOCCOCCOCCNc4cccc5c4CN(C4CCC(=O)NC4=O)C5=O)CC3)ncc2Cl)c1CC1CC1 (stereo partly shown) [Compound 55, 2-(((1r,4r)-4-((5-chloro-4-(5-(cyclopropylmethyl)-1-methyl-1H-pyrazol-4-yl)pyrimidin-2-yl)amino)cyclohexyl)amino)-N-(2-(2-(2-(2-((2-(2,6-dioxopiperidin-3-yl)-1-oxoisoindolin-4-yl)amino)ethoxy)ethoxy)ethoxy)ethyl)acetamide] | ≥ 75 | 50 to 75 | > 90 | > 90 | > 90 | ≤ 0.1 | > 90 | 25 to 50 | – | – | – | – |
| Cn1ncc(-c2nc(N[C@H]3CC[C@H](NCC(=O)NCCCCNCC(=O)NCc4cc5c(s4)C(=O)N(C4CCC(=O)NC4=O)C5=O)CC3)ncc2F)c1CC1CC1 (stereo partly shown) [Compound 37, 2-(((1r,4r)-4-((4-(5-(cyclopropylmethyl)-1-methyl-1H-pyrazol-4-yl)-5-fluoropyrimidin-2-yl)amino)cyclohexyl)amino)-N-(4-((2-(((5-(2,6-dioxopiperidin-3-yl)-4,6-dioxo-5,6-dihydro-4H-thieno[2,3-c]pyrrol-2-yl)methyl)amino)-2-oxoethyl)amino)butyl)acetamide] | 25 to 50 | 50 to 75 | 70 to 90 | > 90 | 50 to 70 | 0.1 to 0.5 | > 90 | 25 to 50 | – | – | – | – |
| CC(C)(C)c1cnc(CSc2cnc(NC(=O)C3CCN(CC(=O)NCCOCCOCCOCCNCC(=O)NCc4scc5c4CN(C4CCC(=O)NC4=O)C5=O)CC3)s2)o1 (stereo not shown) [Compound 41, N-(5-(((5-(tert-butyl)oxazol-2-yl)methyl)thio)thiazol-2-yl)-1-(1-(5-(2,6-dioxopiperidin-3-yl)-4-oxo-5,6-dihydro-4H-thieno[3,4-c]pyrrol-1-yl)-3,18-dioxo-8,11,14-trioxa-2,5,17-triazanonadecan-19-yl)piperidine-4-carboxamide] | 50 to 75 | ≥ 75 | 70 to 90 | > 90 | 70 to 90 | 0.1 to 0.5 | > 90 | 50 to 75 | < 25 | < 25 | 50 to 75 | ≥ 75 |
| CC(C)(C)c1cnc(CSc2cnc(NC(=O)C3CCN(CC(=O)NCCOCCOCCNCC(=O)NCc4cc5c(s4)C(=O)N(C4CCC(=O)NC4=O)C5)CC3)s2)o1 (stereo not shown) [Compound 34, N-(5-(((5-(tert-butyl)oxazol-2-yl)methyl)thio)thiazol-2-yl)-1-(1-(5-(2,6-dioxopiperidin-3-yl)-6-oxo-5,6-dihydro-4H-thieno[2,3-c]pyrrol-2-yl)-3,15-dioxo-8,11-dioxa-2,5,14-triazahexadecan-16-yl)piperidine-4-carboxamide] | 50 to 75 | 50 to 75 | 70 to 90 | 70 to 90 | > 90 | ≤ 0.1 | 70 to 90 | 25 to 50 | 25 to 50 | < 25 | < 25 | ≥ 75 |
